# Source: article PMC9898036, “VIP152 is a selective CDK9 inhibitor with pre-clinical in vitro and in vivo efficacy in chronic lymphocytic leukemia” (Leukemia, 2022)
# Columns and labels:
# CLL patient samples = experiment: Western blot of CLL patient samples; format: cell-based, human; conditions: 1 µM, 8 h
# Method: Lysate concentration was quantified using Pierce™ BCA Protein Assay Kit (ThermoFiser Scientific – cat. 23225) and proteins were analyzed via immunoblot. A full list of antibodies may be found in the supplementary methods section. All images are representative of three independent experiments.
# P-TEFb’s role in regulating transcription through POLII CTD phosphorylation is a canonical function of this complex. To interrogate the transcriptional changes associated with VIP152 treatment, we treated B-cells, isolated from four patients with treatment-naïve CLL, with 1 µM VIP152 or DMSO for two hours followed by fluorescence-assisted cell sorting for 500 live (Sytox^−), CD45^+/CD5^+/CD19^+ cells (Fig. 3A). Our group has previously defined an analysis pipeline, named CLEAR, which identifies evenly distributed reads for differentially expressed gene (DEG) analysis. […] When we looked at the expression of these differentially abundant genes via an unsupervised clustered heatmap, we noted that there was high concordance between the patient samples with clustering dependent on treatment group (Fig. 3C). The treatment did induce decreased transcript abundance of genes previously reported to be controlled by CDK9 activity, namely JUNB, BTG1, and MCL1 [45, 46]. Downregulation of the anti-apoptotic MCL1 (LFC: −1.231056 & p-value = 0.02) likely contributes to the susceptibility of primary CLL cells to apoptosis (Fig. 2F, G). […] It has been established that AU-rich element (ARE) mRNA molecules are under tight temporal regulation and control a variety of cellular processes. Moreover, the relationship between P-TEFb mediated transcription and ARE-bearing mRNA has previously been described. […] We appreciate from our limiting-cell RNA sequencing experiments that the loss of tristetrapolin (ZFP36) transcripts (LFC: −4.02; adjusted p-value: 7.97*10^−40) and the upregulation of ribosomal transcripts, likely correspond to a possible compensatory mechanism by which these cells attempt to improve translational output and maximize transcript maintenance in response to VIP152-induced transcriptional shutdown. […] We looked at transcripts which had been shown by photoactivatable ribonucleoside cross-linking and immunoprecipitation (PAR-CLIP) to interact with ZFP36 [50]. […]
# Fig. 3 VIP152 induces rapid transcriptomic changes. […] E–G 7 CLL patient samples were treated for 8 h with 1 µM VIP152 and then analyzed for protein expression by western blot (E, F) and ZFP36, ZFP36L1, and ZFP36L2 expression by qRT-PCR (G). H–L 5 CLL patient samples were treated for 8 h with 1 µM VIP152 and then supplemented with 500 nM Actinomycin-D. RNA was taken at varying timepoints and analyzed via qRT-PCR. M mRNA half-lives of analyzed transcripts in (H–L) as determined by nonlinear regression using a one-phase decay method.
# FLT3(ITD) = experiment: KINOMEscan: FLT3(ITD); format: binding, human; conditions: 1000 nM
# KIT(D816V) = KIT(D816V) (Homo sapiens, UniProt P10721, D816V); experiment: KINOMEscan: KIT(D816V); format: binding; conditions: 1000 nM, read-out: Percent Control
# LKB1 = LKB1 (Homo sapiens, UniProt Q15831); experiment: KINOMEscan: LKB1; format: binding; conditions: 1000 nM, read-out: Percent Control
# MEK2 = MEK2 (Homo sapiens, UniProt P36507); experiment: KINOMEscan: MEK2; format: binding; conditions: 1000 nM, read-out: Percent Control
# MST2 = MST2 (Homo sapiens, UniProt Q13188); experiment: KINOMEscan: MST2; format: binding; conditions: 1000 nM, read-out: Percent Control
# Chain of MST2 (Q13188 whole entry): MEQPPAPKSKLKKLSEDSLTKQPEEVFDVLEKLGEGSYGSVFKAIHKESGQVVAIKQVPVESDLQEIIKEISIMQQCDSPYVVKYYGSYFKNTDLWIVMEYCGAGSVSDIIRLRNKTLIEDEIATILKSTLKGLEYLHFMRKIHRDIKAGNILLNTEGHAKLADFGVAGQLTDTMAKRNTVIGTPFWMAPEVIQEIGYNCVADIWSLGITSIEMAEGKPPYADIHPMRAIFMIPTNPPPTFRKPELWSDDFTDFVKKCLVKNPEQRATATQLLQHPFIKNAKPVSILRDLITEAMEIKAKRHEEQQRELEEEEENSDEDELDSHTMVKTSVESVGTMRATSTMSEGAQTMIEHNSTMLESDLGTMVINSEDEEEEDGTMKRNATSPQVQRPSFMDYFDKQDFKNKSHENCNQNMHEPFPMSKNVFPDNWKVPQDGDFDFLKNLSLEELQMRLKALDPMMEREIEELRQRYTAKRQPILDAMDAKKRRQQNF
# Chain of MEK2 (P36507 whole entry): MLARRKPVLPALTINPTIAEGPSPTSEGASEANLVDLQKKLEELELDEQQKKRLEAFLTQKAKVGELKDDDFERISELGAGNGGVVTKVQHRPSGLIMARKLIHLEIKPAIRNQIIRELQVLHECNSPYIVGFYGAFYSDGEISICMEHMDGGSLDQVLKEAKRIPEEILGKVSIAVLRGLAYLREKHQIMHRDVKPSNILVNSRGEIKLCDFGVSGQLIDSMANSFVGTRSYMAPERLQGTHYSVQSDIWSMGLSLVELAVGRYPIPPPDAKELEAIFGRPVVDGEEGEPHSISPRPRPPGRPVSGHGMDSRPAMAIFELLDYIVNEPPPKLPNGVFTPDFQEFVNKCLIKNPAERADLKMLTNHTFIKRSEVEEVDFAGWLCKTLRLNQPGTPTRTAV
# Chain of KIT(D816V) (P10721 26-976 D816V): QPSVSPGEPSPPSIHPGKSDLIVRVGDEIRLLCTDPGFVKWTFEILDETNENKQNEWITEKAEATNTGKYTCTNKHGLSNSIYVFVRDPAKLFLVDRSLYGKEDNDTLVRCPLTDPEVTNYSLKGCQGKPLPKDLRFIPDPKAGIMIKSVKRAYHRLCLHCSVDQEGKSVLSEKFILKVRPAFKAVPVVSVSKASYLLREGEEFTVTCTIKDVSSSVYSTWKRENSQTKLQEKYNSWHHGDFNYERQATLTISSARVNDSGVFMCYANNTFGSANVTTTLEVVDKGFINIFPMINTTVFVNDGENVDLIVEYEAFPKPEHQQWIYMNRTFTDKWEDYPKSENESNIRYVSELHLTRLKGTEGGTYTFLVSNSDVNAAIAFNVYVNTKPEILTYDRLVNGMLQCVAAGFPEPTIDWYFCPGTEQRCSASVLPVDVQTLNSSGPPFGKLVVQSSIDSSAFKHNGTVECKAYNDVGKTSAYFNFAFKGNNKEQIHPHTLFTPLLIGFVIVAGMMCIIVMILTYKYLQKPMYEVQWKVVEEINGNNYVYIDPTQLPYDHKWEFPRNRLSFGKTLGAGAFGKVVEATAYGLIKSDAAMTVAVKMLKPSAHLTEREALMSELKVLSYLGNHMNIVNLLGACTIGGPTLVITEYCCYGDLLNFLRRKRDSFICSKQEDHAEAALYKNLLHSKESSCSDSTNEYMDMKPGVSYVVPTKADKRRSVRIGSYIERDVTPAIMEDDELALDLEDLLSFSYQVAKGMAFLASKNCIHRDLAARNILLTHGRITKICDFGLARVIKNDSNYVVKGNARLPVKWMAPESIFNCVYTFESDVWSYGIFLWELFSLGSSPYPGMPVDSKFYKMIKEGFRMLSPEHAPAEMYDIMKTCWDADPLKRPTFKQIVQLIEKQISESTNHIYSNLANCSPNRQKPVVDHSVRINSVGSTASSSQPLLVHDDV
# Chain of LKB1 (Q15831 whole entry): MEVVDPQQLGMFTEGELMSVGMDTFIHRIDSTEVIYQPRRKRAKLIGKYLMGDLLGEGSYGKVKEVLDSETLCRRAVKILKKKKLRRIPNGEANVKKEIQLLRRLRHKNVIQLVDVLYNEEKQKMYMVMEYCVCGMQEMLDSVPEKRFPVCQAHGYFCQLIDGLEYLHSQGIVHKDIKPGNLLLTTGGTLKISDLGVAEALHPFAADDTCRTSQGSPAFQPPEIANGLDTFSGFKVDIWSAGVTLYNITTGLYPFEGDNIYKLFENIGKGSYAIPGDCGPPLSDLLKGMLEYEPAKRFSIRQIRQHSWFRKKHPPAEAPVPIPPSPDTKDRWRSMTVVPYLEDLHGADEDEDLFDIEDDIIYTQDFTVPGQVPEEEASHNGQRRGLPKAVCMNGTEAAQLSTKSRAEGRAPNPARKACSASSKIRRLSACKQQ
structure (smiles),measurement,setting,value
COc1cc(F)ccc1-c1cc(Nc2cc(CS(C)(=N)=O)ccn2)ncc1F (stereo not drawn) [VIP152],BTG1 protein,CLL patient samples,not
same,JUNB protein,CLL patient samples,decrease
same,MCL1 protein,CLL patient samples,decrease
same,expression of tristetrapolin (ZFP36),CLL patient samples; seven CLL patient samples,decreased expression
same,Percent Control,FLT3(ITD),87%
same,remaining binding at 1 µM,KIT(D816V),88%
same,remaining binding at 1 µM,LKB1,77%
same,remaining binding at 1 µM,MEK2,88%
same,remaining binding at 1 µM,MST2,96%
